Broadly, the IC50 is the concentration needed to halve the response being measured. A word on the EC50: it is the midpoint of the concentration-response curve.

Read-outs that look alike come from different tables or passages of the source.

This is an account of results in patent US20120040966A1, “ANTI-VIRAL COMPOUNDS, TREATMENT, AND ASSAY” (priority 2008, published 2012).

Assay [1] concerns Madin Darby Canine Kidney (MDCK) cells. In words: cells. The class given is cell-based. Conditions: Canis lupus familiaris, MDCK, read-out: IC50 (toxicity).
Assay [2] relates to influenza strain A/VN/1203/2004 (H5N1). In words: microbe, parasite or virus in culture. The class given is cell-based, Influenza A virus (H5N1).
The test system of assay [3] is Influenza virus strain A/CA/04/2009 (H1N1). Briefly: organism not typed. Conditions: MDCK, 72 h, read-out: H1N1 EC50 (@ 50% Via). Type of assay: cell-based.
The mark [4] stands for this setting: Influenza A virus, H5N1, MDCK, 72 h, read-out: H5N1 EC50 (@ 50% Via).
The mark [5] stands for this setting: Influenza A virus, H5N1, MDCK, 72 h, read-out: H5N1 EC50 (Inf Pt).
[6] abbreviates: read-out: H5N1 EC50 (@ 50% Via).

For the compound `COc1ccc(C2NC(=O)NC3=C2CCCc2ccccc23)cc1Br` (centres unmarked) [compound 23096], the IC50 in assay [1] was above 40 µM. Further, the figures for the EC50 in assay [2] (setting [4]), in assay [2] (setting [5]) and in assay [3] were 0.242 µM, 0.28 µM and 0.153 µM, respectively.

Turning to `COc1ccc(C2NC(=O)NC3=C2CN(C(=O)CNC(C)=O)c2ccccc23)cc1Br` (centres unmarked) [compound 25350], in assay [1], the IC50 is above 40 µM. Besides, the EC50 in assay [2] (setting [4]) is 0.045 µM; in assay [2] (setting [5]), 0.044 µM; in assay [3] it was 0.622 µM.

As for `COc1ccc2c(c1)C1=C(CC2)C(c2ccc(C)cc2)NC(=O)N1` (centres unmarked) [compound 22087], the IC50 in assay [1] is above 50 µM. In addition, the EC50 is above 50 µM in assay [2] (setting [4]) and 47 µM in assay [3].

`COc1ccc(C2NC(=O)NC3=C2COc2ccccc23)cc1C` (centres unmarked) [compound 23210]: the IC50 in assay [1] was above 40 µM. Moreover, the values for the EC50 in assay [2] (setting [4]), in assay [2] (setting [5]) and in assay [3] were 0.332 µM, 0.307 µM and 3.1 µM, respectively.

As to `COc1ccc(C2NC(=O)NC3=C2CN(C(=O)c2ccc4c(c2)OCO4)c2ccccc23)cc1Br` (centres unmarked) [compound 23274], the IC50 in assay [1] was above 40 µM. The EC50 in assay [2] (setting [4]), in assay [2] (setting [5]) and in assay [3] was above 40 µM in each case.

As for `COc1ccc(C2NC(=O)NC3=C2CN(C(=O)CNC(=O)CO)c2ccccc23)cc1Br` (centres unmarked) [compound 25414], the IC50 in assay [1] is above 40 µM. For the same compound, the EC50 in assay [2] (setting [4]) is 0.277 µM; in assay [2] (setting [5]) it was 0.275 µM; in assay [3], above 40 µM.

In the case of `COc1ccc(C2NC(=O)NC3=C2CN(C(=O)c2ccco2)c2ccccc23)cc1Br` (centres unmarked) [compound 23209], in assay [1], the IC50 is above 40 µM. For the same compound, the EC50 in assay [2] (setting [4]), in assay [2] (setting [5]) and in assay [3] was above 40 µM in each case.

Turning to `COc1ccc(C2NC(=O)NC3=C2CCc2ccccc23)cc1F` (centres unmarked) [compound 22522], in assay [1], the IC50 was above 50 µM. The EC50 came out at 0.26 µM in assay [2] (setting [4]), 0.19 µM in assay [2] (setting [5]) and 3.8 µM in assay [3].

With `CCOc1ccc(C2NC(=O)NC3=C2CCc2ccccc23)cc1C` (centres unmarked) [compound 22711], the 50% inhibitory concentration (IC50) in assay [1] is above 50 µM. In addition, the values for the EC50 in assay [2] (setting [4]), in assay [2] (setting [5]) and in assay [3] were 1.3 µM, 1.2 µM and 37 µM, respectively.

As to `O=C1NC2=C(COc3ccccc32)C(c2ccc(F)c(Br)c2)N1` (centres unmarked) [compound 23098], the IC50 in assay [1] was above 40 µM. For the same compound, the EC50 is 1.2 µM in assay [2] (setting [4]), 1.3 µM in assay [2] (setting [5]) and above 40 µM in assay [3].

On to `COc1ccc(C2NC(=O)NC3=C2CCc2c(OC)cccc23)cc1Br` (centres unmarked) [compound 22722], for which, in assay [1], the IC50 was above 0.062 µM. The EC50 is above 0.062 µM in assay [2] (setting [4]), above 0.062 µM in assay [2] (setting [5]) and 1.1 µM in assay [3].

In the case of `COc1cccc2c1CCC1=C2NC(=O)NC1c1ccc(C)cc1` (centres unmarked) [compound 22123], in assay [1], the IC50 is above 50 µM. Besides, the values for the EC50 in assay [2] (setting [4]), in assay [2] (setting [5]) and in assay [3] were 18.3 µM, 10.9 µM and above 50 µM, respectively.

For the compound `COc1ccc(C2NC(=O)NC3=C2CN(C(=O)CSCC(O)CO)c2ccccc23)cc1Br` (centres unmarked) [compound 25412], the half-inhibitory concentration (IC50) in assay [1] is above 40 µM. Also, the results for the EC50 in assay [2] (setting [4]), in assay [2] (setting [5]) and in assay [3] were 0.893 µM, 0.848 µM and 3.1 µM, respectively.

For `COc1ccc(C2NC(=O)NC3=C2CN(C(=O)COC(C)=O)c2ccccc23)cc1Br` (centres unmarked) [compound 23206], the IC50 in assay [1] is above 40 µM. The EC50 in assay [2] (setting [4]) is 0.022 µM; in assay [2] (setting [5]), 0.022 µM; in assay [2] (setting [6]), 0.0119 µM; in assay [2] (read-out: H5N1 EC50 (Inf Pt)), 0.0112 µM; in assay [3], 0.0257 µM.

As for `COc1cccc(C2NC(=O)NC3=C2COc2ccccc23)c1` (centres unmarked) [compound 22107], the IC50 in assay [1] is above 50 µM. Moreover, the values for the EC50 in assay [2] (setting [4]), in assay [2] (setting [5]) and in assay [3] were above 50 µM, above 50 µM and 46 µM, respectively.

Consider `COc1ccc(C2NC(=O)NC3=C2CCc2ncccc23)cc1Br` (centres unmarked) [compound 23102], for which, in assay [1], the IC50 was above 40 µM. Besides, the EC50 in assay [2] (setting [4]) is 14.5 µM; in assay [3], above 40 µM.

For `COc1ccc(-c2nc(=O)[nH]c3c2CCc2ccccc2-3)cc1` [compound 22125], the IC50 in assay [1] was above 50 µM. Further, the EC50 in assay [2] (setting [4]) turned out to be 0.96 µM; in assay [2] (setting [5]), 0.92 µM; in assay [2] (setting [6]), 1.62 µM; in assay [2] (read-out: H5N1 EC50 (Inf Pt)), 1.45 µM; in assay [3], 24 µM.

As to `O=C1NC2=C(CCc3ccccc32)C(c2ccc(C(F)(F)F)cc2)N1` (centres unmarked) [compound 22119], in assay [1], the IC50 was above 50 µM. Further, the EC50 in assay [2] (setting [4]) came out at 32.9 µM; in assay [2] (setting [5]), 14.8 µM; in assay [3], 11.7 µM.

On to `O=C1NC2=C(CCc3ccccc32)C(c2ccc3c(c2)OCO3)N1` (centres unmarked) [compound 22121], for which the half-inhibitory concentration (IC50) in assay [1] came out at 29.6 µM. Besides, the EC50 in assay [2] (setting [4]) was 0.39 µM; in assay [2] (setting [5]), 0.34 µM; in assay [2] (read-out: H5N1 EC50 (Inf Pt)), 0.22 µM; in assay [3] it was above 50 µM.

Turning to `Cc1ccc(C2NC(=O)NC3=C2COc2ccccc23)cc1C` (centres unmarked) [compound 22105], the IC50 in assay [1] is above 50 µM. Moreover, the EC50 was 1.8 µM in assay [2] (setting [4]); 1 µM in assay [2] (setting [5]); 2.7 µM in assay [2] (setting [6]); 1.9 µM in assay [2] (read-out: H5N1 EC50 (Inf Pt)); 14.9 µM in assay [3].

Regarding `COc1cc(C2NC(=O)NC3=C2CCc2ccccc23)ccc1F` (centres unmarked) [compound 22517], the IC50 in assay [1] was above 50 µM. Moreover, the EC50 in assay [2] (setting [4]) is 9.6 µM; in assay [2] (setting [5]), 7.2 µM; in assay [3] it was above 50 µM.

`COc1cccc2c1CCC1=C2NC(=O)NC1c1ccc(C)c(C)c1` (centres unmarked) [compound 22113]: the IC50 in assay [1] is above 50 µM. The EC50 in assay [2] (setting [5]) stood at 2.4 µM; in assay [2] (read-out: H5N1 EC50 (Inf Pt)), 4.4 µM; in assay [3] it was 16.8 µM.

`O=C1NC2=C(C(c3ccc4c(c3)OCO4)N1)C(c1ccccc1)Oc1ccccc12` (centres unmarked) [compound 22421]: in assay [1], the IC50 is above 50 µM. In addition, the EC50 in assay [2] (setting [4]), in assay [2] (setting [5]) and in assay [3] was above 50 µM in each case.

Take `CCOc1cccc(C2NC(=O)NC3=C2CCc2ccccc23)c1` (centres unmarked) [compound 22520]: the IC50 in assay [1] was above 50 µM. The EC50 in assay [2] (setting [5]) is 7.1 µM; in assay [3] it was above 50 µM.

On to `COc1ccc(C2NC(=O)NC3=C2CN(C(=O)CN2CCOCC2)c2ccccc23)cc1Br` (centres unmarked) [compound 23272], for which the IC50 in assay [1] was above 40 µM. Besides, the EC50 is 9.1 µM in assay [2] (setting [4]), 8.7 µM in assay [2] (setting [5]) and 3.5 µM in assay [3].

For the compound `O=C1NC2=C(COc3ccccc32)C(c2ccc(O)c(Br)c2)N1` (centres unmarked) [compound 22701], the 50% inhibitory concentration (IC50) in assay [1] was above 20 µM. In addition, the EC50 in assay [2] (setting [4]) was found to be 0.0262 µM; in assay [2] (setting [5]) it was 0.021 µM; in assay [2] (setting [6]) it was 0.027 µM; in assay [2] (read-out: H5N1 EC50 (Inf Pt)) it was 0.027 µM; in assay [3], 1.6 µM.

For the compound `COc1ccc(C2NC(=O)NC3=C2CN(C(=O)CN(C)C)c2ccccc23)cc1Br` (centres unmarked) [compound 25012], in assay [1], the IC50 was above 40 µM. For the same compound, the results for the EC50 in assay [2] (setting [4]), in assay [2] (setting [5]) and in assay [3] were below 0.33 µM, 0.2 µM and 3 µM, respectively.

For the compound `O=C1NC2=C(CCc3ccccc32)C(c2cccc([N+](=O)[O-])c2)N1` (centres unmarked) [compound 22347], in assay [1], the IC50 was above 50 µM. In addition, the EC50 in assay [2] (setting [4]) was 5.5 µM; in assay [2] (setting [5]), 4.2 µM; in assay [3], above 50 µM.

As for `O=C1NC2=C(COc3ccccc32)C(c2ccc(Cl)c(Cl)c2)N1` (centres unmarked) [compound 22404], the IC50 in assay [1] was above 50 µM. Also, the EC50 in assay [2] (setting [4]) was 1.6 µM; in assay [2] (setting [6]), 0.94 µM; in assay [3] it was above 50 µM.

Turning to `COc1ccc(C2NC(=O)NC3=C2CN(C(=O)CNC2CC2)c2ccccc23)cc1Br` (centres unmarked) [compound 24718], the IC50 in assay [1] is above 40 µM. In addition, the EC50 in assay [2] (setting [4]) was found to be 9.7 µM; in assay [2] (setting [5]), 9.7 µM; in assay [3], 8 µM.

Take `COc1ccc(C2NC(=O)NC3=C2CCc2ccccc23)cc1OC` (centres unmarked) [compound 22524]: the IC50 in assay [1] is above 50 µM. For the same compound, the half-maximal effective concentration (EC50) came to 7.4 µM in assay [2] (setting [4]), 7 µM in assay [2] (setting [5]) and 39 µM in assay [3].

As to `CCOc1c(Br)cc(C2NC(=O)NC3=C2CCc2ccccc23)cc1Br` (centres unmarked) [compound 22704], the IC50 in assay [1] was above 40 µM. Moreover, the EC50 in assay [2] (setting [4]), in assay [2] (setting [5]) and in assay [3] was above 40 µM each time.

In the case of `Cc1ccc(C2NC(=O)NC3=C2CCCc2ccccc23)cc1` (centres unmarked) [compound 22083], the IC50 in assay [1] is above 50 µM. For the same compound, the figures for the EC50 in assay [2] (setting [4]) and in assay [3] were 28 µM and 9.5 µM, respectively.
